According to ChEMBL document CHEMBL3244276, “Hydrogen-bonding parameter and its significance in quantitative structure--activity studies” (J Med Chem, 1977):

Columns and labels:
physchem [1] = details: octanol/water
physchem [2] = test: physchem
[3] = octanol/water
[4] = octanol/water; remark: listed apart in the source
[5] = octanol/water; remark: listed apart in the source
[6] = octanol/water; remark: listed apart in the source
[7] = octanol/water; remark: listed apart in the source

SMILES | logP (physchem [1]) | other results
Oc1cccc(I)c1 | 2.93 | –
CC1OC(C)OC(C)O1 (stereo not drawn) | – | logP (physchem [2]; oil/water): 0.28
COc1cccc(OCC(=O)O)c1 | 1.38 | –
CC(=O)c1ccc(S(N)(=O)=O)cc1 | 0.2 | –
Cc1cccc(S(N)(=O)=O)c1 | 0.85 | –
O=C(O)COc1ccccc1 | 1.26 | –
CNc1ccc(S(N)(=O)=O)cc1 | 0.08 | –
COc1ccc(S(N)(=O)=O)cc1 | 0.47 | –
N#Cc1ccc(S(N)(=O)=O)cc1 | 0.23 | –
NS(=O)(=O)c1ccc(Br)cc1 | 1.36 | –
NS(=O)(=O)c1ccc([N+](=O)[O-])c(C(F)(F)F)c1 | 1.73 | –
Oc1cccc(Br)c1 | 2.63 | –
CNC(=O)Oc1cccc(C(C)C)c1 | 2.63 | –
O=C(O)COc1cccc(C(=O)O)c1 | 1.11 | –
CC(O)C(C)O (stereo not drawn) | – | logP (physchem [2]; oil/water): -2.47
NS(=O)(=O)c1ccc([N+](=O)[O-])cc1 | 0.64 | –
O=C(O)COc1ccc(O)cc1 | 0.65 | –
O=C(O)COc1cccc(Cl)c1 | 2.02 | –
CC(=O)Nc1cccc(OCC(=O)O)c1 | 0.47 | –
O=C(O)COc1cccc([N+](=O)[O-])c1 | 1.37 | –
O=C(O)COc1cccc(C(F)(F)F)c1 | 2.33 | –
CCOc1ccccc1OC(=O)NC | 1.24 | –
CNC(=O)Oc1ccccc1C#N | 0.86 | –
COP(=O)(OC)Oc1ccccc1 | 1.22 | pKHB: 2.21
CNC(=O)Oc1ccccc1I | 1.96 | –

SMILES | logP (physchem [1]) | other results
CNC(=O)Oc1ccccc1OC | 0.81 | –
CNC(=O)Oc1ccccc1[N+](=O)[O-] | 1.02 | –
CNC(=O)Oc1cccc(Cl)c1 | 2.03 | –
CNC(=O)Oc1cccc(Br)c1 | 2.25 | –
CNC(=O)Oc1cccc(OC)c1 | 1.3 | –
CNC(=O)Oc1cccc(N(C)C)c1 | 1.43 | –
CNC(=O)Oc1cccc(C=O)c1 | 0.92 | –
CNC(=O)Oc1cccc(C(C)=O)c1 | 0.9 | –
CNC(=O)Oc1cccc(C#N)c1 | 0.98 | –
CNC(=O)Oc1cccc([N+](=O)[O-])c1 | 1.39 | –
CNC(=O)Oc1ccc(C(C)C)cc1 | 2.8 | –
CNC(=O)Oc1ccc(I)cc1 | 2.46 | –
CCOc1ccc(OC(=O)NC)cc1 | 1.64 | –
CNC(=O)Oc1ccc(C=O)cc1 | 0.99 | –
CNC(=O)Oc1ccc(C(C)=O)cc1 | 1.01 | –
O=C(O)COc1ccc(F)cc1 | 1.41 | –
Cc1ccc(OCC(=O)O)cc1 | 1.78 | –
CS(=O)(=O)c1cccc(OCC(=O)O)c1 | 0 | –
CCc1cccc(OCC(=O)O)c1 | 2.23 | –
NS(=O)(=O)c1cccc([N+](=O)[O-])c1 | 0.55 | –
NS(=O)(=O)c1cccc(Cl)c1 | 1.29 | –
CN(C)c1ccccc1 | – | logP [3]: 2.38; pKHB: 0.45
CN(C)C(=O)c1ccccc1 | 0.62 | pKHB: 2.22
CN(C)Cc1ccccc1 | 1.98 | logP [3]: 1.44; pKHB: 1.56
CCOC(N)=O | – | logP (physchem [2]; oil/water): -1.13

SMILES | logP (physchem [1]) | other results
CC(=O)N(C)c1ccccc1 | 1.12 | logP [3]: -0.4; pKHB: 2
Oc1ccc(I)cc1 | 2.91 | –
Oc1cccc(F)c1 | 1.93 | –
C[C@H](O)CCO [1,3-BUTANEDIOL] | – | logP (physchem [2]; oil/water): -2.37
OCCCCO [1,4-BUTANEDIOL] | – | logP (physchem [2]; octanol/water): -2.68; logP [4]: -1.72
OCCCCCCO [1,6-HEXANEDIOL] | – | logP (physchem [2]; oil/water): -2.17
CCCCCO [1-PENTANOL] | – | logP [5]: 0.36
COc1cccc(O)c1 [1-hydroxy-3-methoxybenzene] | 1.58 | –
CNC(=O)Oc1ccc(C#N)cc1 [4-CYANOPHENYL METHYLCARBAMATE] | 0.95 | –
CNC(=O)Oc1ccc([N+](=O)[O-])cc1 [4-NITROPHENYL METHYLCARBAMATE] | 1.46 | –
CC(C)=O [ACETONE] | – | logP (physchem [2]; oil/water): -0.7
CC(=O)c1ccccc1 [ACETOPHENONE] | – | logP [3]: 1.14; pKHB: 1.13
Nc1ccccc1 [ANILINE] | – | logP [3]: -0.05
COc1ccccc1 [ANISOLE] | – | pKHB: 0.02
O=Cc1ccccc1 [BENZALDEHYDE] | – | logP [3]: 1.11; pKHB: 0.8
NS(=O)(=O)c1ccccc1 [BENZENESULFONAMIDE] | 0.31 | –
N#Cc1ccccc1 [BENZONITRILE] | 1.56 | logP [3]: 0.96; pKHB: 0.79
OCc1ccccc1 [BENZYL ALCOHOL] | – | logP [3]: -0.76
NCc1ccccc1 [BENZYLAMINE] | – | logP [3]: -0.15
Brc1ccccc1 [BROMOBENZENE] | – | logP [3]: 3.08; pKHB: -0.84
CCCC(N)=O [BUTYRAMIDE] | – | logP (physchem [2]; oil/water): -2.02
Clc1ccccc1 [CHLOROBENZENE] | – | logP [3]: 2.98; pKHB: -0.8
CCOCC [ETHER] | – | logP (physchem [2]; oil/water): 0.38
CCOC(C)=O [ETHYL ACETATE] | – | logP (physchem [2]; oil/water): 0.4
CCc1ccccc1 [ETHYLBENZENE] | – | pKHB: -0.34

SMILES | logP (physchem [1]) | other results
OCCO [ETHYLENE GLYCOL] | – | logP (physchem [2]; octanol/water): -3.31; logP [4]: -2.28
CCCCCC(=O)O [HEXANOATE] | – | logP [5]: 0.83
CC(C)CC(N)=O [ISOVALERAMIDE] | – | logP (physchem [2]; oil/water): -1.64
COc1ccc(O)cc1 [MEQUINOL] | 1.34 | –
Cc1cccc(O)c1 [METACRESOL] | 2.02 | –
C1N2CN3CN1CN(C2)C3 [METHENAMINE] | – | logP (physchem [2]; oil/water): -3.68
COC(N)=O [METHYL CARBAMATE] | – | logP (physchem [2]; oil/water): -1.6
CS(=O)(=O)c1ccccc1 [METHYLPHENYLSULFONE] | 0.47 | pKHB: 1.05
CNC(=O)Oc1cccc(C)c1 [METOLCARB] | 1.7 | –
O=[N+]([O-])c1ccccc1 [NITROBENZENE] | – | logP [6]: 2.93; logP [3]: 1.49
NS(=O)(=O)c1ccc(Cl)cc1 [P-CHLOROBENZENESULFONAMIDE] | 0.84 | –
Cc1ccc(S(N)(=O)=O)cc1 [P-TOLUENESULFONAMIDE] | 0.82 | –
CCOc1ccccc1 [PHENETOLE] | 2.51 | pKHB: 0.22
Oc1ccccc1 [PHENOL] | – | logP [6]: 0.36; logP [3]: -0.89; logP [7]: 1.3
O=C(O)Cc1ccccc1 [PHENYLACETIC ACID] | 1.41 | –
CCC(N)=O [PROPIONAMIDE] | – | logP (physchem [2]; oil/water): -2.44
CCC(=O)O [PROPIONIC ACID] | – | logP [5]: -0.8
CNC(=O)Oc1ccccc1OC(C)C [PROPOXUR] | 1.52 | –
CC(O)CO (stereo not drawn) [PROPYLENE GLYCOL] | – | logP (physchem [2]; oil/water): -2.77
O=C1CCC(=O)N1 [SUCCINIMIDE] | – | logP (physchem [2]; oil/water): -2.31
Cc1ccccc1 [TOLUENE] | – | pKHB: -0.29
CC(=O)OCC(COC(C)=O)OC(C)=O [TRIACETIN] | – | logP (physchem [2]; oil/water): -0.36
CCCCC(=O)O [VALERIC ACID] | – | logP (physchem [2]; oil/water): 0.48
